Measurements from US20090047246A1, “NOVEL INHIBITORS OF HEPATITIS C VIRUS REPLICATION” (InterMune, Inc., priority 2007, published 2009).
pIC50: −log10 of the molar value. Read-outs that look alike come from different tables or passages of the source.

Legend:
[1] = tested on: HCV NS3/4a protease; experiment: HCV NS3/4a protease activity, effect of additives on reaction rate (Assay Example 1); type: biochemical, HCV genotype 1b-K2040; conditions: base buffer 50 mM Tris-HCl pH 7.5, 15% glycerol; for Conclusion (effect of additive on NS3/4a protease reaction rate): 0.5 μM FRET substrate, additive at the concentrations tested
Description: In order to identify reaction conditions that give high levels of HCV NS3/4a protease activity, several additives were analyzed to determine their effect on reaction rate. The base buffer used was 50 mM Tris-HCl, pH 7.5 containing 15% glycerol. The FRET-based assay substrate used (sequence: Ac-DE-Dap(QXL520)-EE-Abu-ψ-[COO]-AS-Cys(5-FAMsp)-NH2) was obtained from Anaspec, Inc. (San Jose, Calif.). The NS4a surrogate peptide used (KGSVVIVGRIILSGRK) was obtained from Midwest Biotech (Fishers, Ind.). The NS3 enzyme used was the benchmark wild-type full length enzyme derived from HCV genotype 1b-K2040. The reaction rate for the NS3 catalyzed hydrolysis of 0.5 μM substrate in base buffer was used as a reference.

[2] = molecular target: NS3 Helicase (Hepatitis C virus genotype 1b, UniProt P26663); experiment: Activity of NS3 Helicase in Presence of Detergent with or without LDAO (Table A); type: biochemical
Chain of NS3 Helicase (P26663 1027-1657): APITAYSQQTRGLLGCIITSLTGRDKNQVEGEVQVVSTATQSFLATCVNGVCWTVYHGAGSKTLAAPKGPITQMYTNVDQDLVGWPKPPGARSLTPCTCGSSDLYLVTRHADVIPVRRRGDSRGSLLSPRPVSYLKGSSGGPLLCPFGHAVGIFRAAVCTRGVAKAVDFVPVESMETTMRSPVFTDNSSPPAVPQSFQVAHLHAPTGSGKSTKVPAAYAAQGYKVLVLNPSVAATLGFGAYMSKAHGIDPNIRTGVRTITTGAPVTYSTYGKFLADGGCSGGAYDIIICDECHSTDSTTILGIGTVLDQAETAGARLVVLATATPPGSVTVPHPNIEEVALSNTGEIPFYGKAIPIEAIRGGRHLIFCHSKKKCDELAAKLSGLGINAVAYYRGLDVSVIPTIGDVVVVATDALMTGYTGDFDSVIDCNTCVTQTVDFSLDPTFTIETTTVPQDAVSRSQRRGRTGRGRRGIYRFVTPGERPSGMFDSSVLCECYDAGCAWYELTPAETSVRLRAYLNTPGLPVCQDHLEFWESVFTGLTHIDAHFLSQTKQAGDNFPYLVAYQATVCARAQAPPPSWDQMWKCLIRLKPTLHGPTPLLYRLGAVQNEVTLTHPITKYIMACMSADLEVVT
Description: In another embodiment, at least one detergent is added to a solution containing NS3 to improve the helicase activity. In some embodiments, the detergent is selected from the group consisting of LDAO, Tween 20, Triton X100, Pluronic F127, CHAPS, β-octyl glucoside, laurylmaltoside, N-lauroylsarcosine, and hexadecyltrimethylammonium bromide. In a preferred embodiment, LDAO is added. In a more preferred embodiment, at least one additional detergent in added to the solution containing NS3 and LDAO. In some embodiments, the additional detergent(s) is/are selected from the group consisting of Tween 20, Triton X100, Pluronic F127, CHAPS, β-octyl glucoside, laurylmaltoside, N-lauroylsarcosine, and hexadecyltrimethylammonium bromide. Table A represents the helicase activity of NS3 in the presence of LDAO and at least one additional detergent; and, in the absence of LDAO and the presence of at least one other detergent.

[3] = tested on: T1, NS4a surrogate peptide
T1 sequence: KGSVVIVGRIILSGRK

[4] = molecular target: T2, HCV NS3 helicase (Hepatitis C virus genotype 1b, UniProt P26663); experiment: HCV Helicase Prompt FRET Assay (Example A); type: biochemical; conditions: for pIC50: read-out: IC50 Activity
T2 construct: full-length NS3 (1-631), purified at Array BioPharma
T2 sequence (P26663 1027-1657): as above
Summary of the method: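 Full-length NS3 (1-631), 5 or 6 nM, preincubated 5 min with compound, then unwinds 50 nM FAM/BHQ-1 duplex substrate with 250 nM capture strand and 300 μM ATP in 25 mM MOPS pH 7.0, 1.5 mM MgCl2, 0.005% Triton X-100, 2% DMSO. Fluorescence (485/535 nm) followed ~30 min at room temperature; IC50 from initial rates by 4- or 5-parameter fit.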

[5] = plus LDAO 0.6 mM, detergent 0.020%
[6] = plus LDAO 0.6 mM, detergent 0.020%, control = 100
[7] = plus LDAO 0.6 mM, detergent 0.075%
[8] = plus LDAO 0.6 mM, detergent 0.075%, control = 100
[9] = plus LDAO 0.6 mM, detergent 0.05 mM
[10] = plus LDAO 0.6 mM, detergent 0.05 mM, control = 100
[11] = plus LDAO 0.6 mM, detergent 0.2 mM
[12] = plus LDAO 0.6 mM, detergent 0.2 mM, control = 100
[13] = HCV NS3 helicase, tables do not say whether Example A or Example B assay
[14] = Table 36, compounds made using Scheme 54

O=C(O)CCP(CCC(=O)O)CCC(=O)O [TCEP]
Conclusion (effect of additive on NS3/4a protease reaction rate) [1]: detrimental to activity

Pluronic F127
Activity ([2]; no LDAO, detergent 0.020%): 126%
Slope ([2]; no LDAO, detergent 0.020%): −0.48 mP/min
Activity ([2]; no LDAO, detergent 0.075%): 155%
Slope ([2]; no LDAO, detergent 0.075%): −0.59 mP/min
Slope [2, 5]: −1.14 mP/min
Activity [2, 6]: 300%
Slope [2, 7]: −1.29 mP/min
Activity [2, 8]: 339%

CCCCCCCCCCCC(=O)N(C)CC(=O)O [N-lauroylsarcosine]
Slope [2, 9]: −0.53 mP/min
Activity [2, 10]: 87%
Slope [2, 11]: −0.28 mP/min
Activity [2, 12]: 46%

KGSVVIVGRIILSGRK [NS4a peptide, "The NS4a surrogate peptide used (…) was obtained from Midwest Biotech", reference compound]
Conclusion (effect of additive on NS3/4a protease reaction rate) [1]: Best activity at 25 and 2500 μM

CCCCCCCCCCCCO[C@@H]1O[C@H](CO)[C@@H](O[C@H]2O[C@H](CO)[C@@H](O)[C@H](O)[C@H]2O)[C@H](O)[C@H]1O [laurylmaltoside]
Slope [2, 9]: −0.8 mP/min
Activity [2, 10]: 131%
Slope [2, 11]: −1.23 mP/min
Activity [2, 12]: 202%

[Cl-].[Na+] [NaCl]
Conclusion (effect of additive on NS3/4a protease reaction rate) [1]: NaCl detrimental to activity

CCCCCCCCO[C@@H]1O[C@H](CO)[C@@H](O)[C@H](O)[C@H]1O [β-octyl glucoside]
Slope [2, 5]: −0.45 mP/min
Activity [2, 6]: 74%
Slope [2, 7]: −0.38 mP/min
Activity [2, 8]: 62%

C[C@H](CCC(=O)NCCC[N+](C)(C)CCCS(=O)(=O)[O-])[C@H]1CC[C@H]2[C@@H]3[C@H](O)C[C@@H]4C[C@H](O)CC[C@]4(C)[C@H]3C[C@H](O)[C@]12C [CHAPS]
Slope [2, 5]: −0.77 mP/min
Activity [2, 6]: 126%
Slope [2, 7]: −1.16 mP/min
Activity [2, 8]: 190%
Conclusion (effect of additive on NS3/4a protease reaction rate) [1]: CHAPS at 2 mM increased activity

O[C@@H](CS)[C@@H](O)CS [DTT]
Conclusion (effect of additive on NS3/4a protease reaction rate) [1]: 10 and 30 mM DTT improve activity.

Triton X100
Activity ([2]; no LDAO, detergent 0.020%): 66%
Slope ([2]; no LDAO, detergent 0.020%): −0.25 mP/min
Activity ([2]; no LDAO, detergent 0.075%): 53%
Slope ([2]; no LDAO, detergent 0.075%): −0.2 mP/min
Slope [2, 5]: −1.51 mP/min
Activity [2, 6]: 397%
Slope [2, 7]: −1.19 mP/min
Activity [2, 8]: 313%

NS3 enzyme, benchmark wild-type full length enzyme derived from HCV genotype 1b-K2040
NS3/4a protease activity (reaction rate of NS3 catalyzed hydrolysis of 0.5 µM FRET substrate) [3]: Best activity at 25 and 2500 µM

CCCCCCCCCCCC[N+](C)(C)[O-] [LDAO, lauryl (dimethyl)-amine oxide]
Conclusion (effect of additive on NS3/4a protease reaction rate) [1]: LDAO at 0.6 mM raised activity
Increase of NS3/4a protease activity ([1]; LDAO at 0.6 mM): significantly (~10-fold)

CCOC(=O)Cc1cn(Cc2c(C)sc3ccc(Cl)cc23)c2cc(-c3cc(N)cc(N)c3)ccc12 [Compound 617]
IC50 Activity ([4]; Table 27, compounds made using Scheme 34): B or C

Triton X-100
Conclusion (effect of additive on NS3/4a protease reaction rate) [1]: Improvement in activity at 12 μM

Nc1cc(N)cc(-c2ccc3c(CC(=O)NS(=O)(=O)C4CC4)cn(Cc4csc5ccc(Cl)cc45)c3c2)c1 [Example 688]
pIC50 ([4]; Table 34, compounds made using Schemes 51-52): > 5.00

CCOC(=O)Cc1cn(Cc2ccc(Oc3cccc(OCC)c3)cc2)c2cc(-c3cc(N)cc(N)c3)ccc12 [Example 609]
pIC50 ([4]; Table 25, compounds made using Scheme 32): 4.30 to 5.00

CCOC(=O)C(O)c1cn(-c2ccc([N+](=O)[O-])cc2C)c2ccc(Br)cc12 (centres unmarked) [Example 394]
pIC50 [4, 13]: < 4.30

CC(C)(C)OC(=O)NCc1ccc2c(c1)c(Cc1nn[nH]n1)cn2Cc1csc2ccc(Cl)cc12 [Example 208]
pIC50 [4, 13]: > 5.00

CCCCCCCCCCCCCCCC[N+](C)(C)C.[Br-] [hexadecyltrimethylammonium bromide]
Slope [2, 9]: 0.24 mP/min
Activity [2, 10]: −39%
Slope [2, 11]: 0.74 mP/min
Activity [2, 12]: −121%

CC(C)c1ccc(Cn2c(C(=O)Nc3ccc(S(C)(=O)=O)cc3)c(CC(=O)O)c3ccccc32)cc1 [Example 461]
pIC50 [4, 13]: > 5.00

Nc1cc(N)cc(-c2ccc3c(CC(=O)O)cn(Cc4csc5c(Cl)cccc45)c3c2)c1 [Example 725]
pIC50 [4, 14]: 4.30 to 5.00

O=C(O)Cc1c(C(=O)c2ccc(-c3ccccc3)cc2)oc2ccccc12 [Example 223]
pIC50 [4, 13]: 4.30 to 5.00

CCOC(=O)Cc1cn(Cc2c(-c3ccccc3)sc3ccccc23)c2cc(-c3cc(N)cc(N)c3)ccc12 [Example 712]
pIC50 [4, 14]: > 5.00

Nc1cc(N)cc(-c2ccc3c(CC(=O)O)cn(Cc4csc5cc(Cl)ccc45)c3c2)c1 [Example 728]
pIC50 [4, 14]: > 5.00

COc1ccc2c(c1)c(CC(=O)O)cn2Cc1csc2ccc(Cl)cc12 [Example 106]
pIC50 [4, 13]: 4.30 to 5.00
